This is an account of results in paper PMC3192407, “Both Basic and Acidic Amino Acid Residues of IpTxa Are Involved in Triggering Substate of RyR1” (Journal of Biomedicine and Biotechnology, 2011).

Like-named read-outs stand apart in the source and are kept apart here. Bridge positions count the residues as written; N and C are the ends. Peptide text beside a SMILES is read from it.

The target in assay [1] is T1, rabbit skeletal RyR1 (native RyR1 in HSR) (Oryctolagus cuniculus, UniProt P11716).
T1 construct: tested using native RyR1 in rabbit skeletal HSR; from tissue; host or cells: rabbit fast-twitch back and leg muscles (heavy SR vesicles)
Description: Planar lipid bilayer single-channel recording, native RyR1 in HSR. In kind it is biochemical. The following applies: -30 mV. The protocol: A heavy fraction of fragmented SR vesicles (HSR) containing junctional SR was prepared from rabbit fast-twitch back and leg muscles as described previously.
(§1) Single-channel recordings of rabbit skeletal RyR1 incorporated into planar lipid bilayers were carried out as described previously. Lipid bilayers, consisting of brain tissue phosphatidylethanolamine and phosphatidylserine (1 : 1) in decane (20 mg/mL) were formed across a hole of approximately 200 μm diameter. Thinning of the bilayer was monitored by bilayer capacitance. The basic composition of the cis/trans solution consisted of 300 mM cesium methanesulfonate, 10 mM Tris/Hepes (pH 7.2), 2 mM EGTA, and 1.998 mM CaCl2 ([Ca^2+]free = 10 μM). [Ca^2+]free was calculated using the “Chelator” program (Theo Schoenmaker). Cs^+ was selected as the charge carrier to ensure precise control of free [Ca^2+], to increase the channel conductance, and to avoid any contribution from potassium channels present in the SR membrane. Chloride channels were inhibited by using the impermeant anion methanesulfonate. Incorporation of ion channels was carried out as described by Miller and Racker and confirmed by recording the characteristically high single-channel conductance of RyRs. The trans side was maintained at ground and the cis side was clamped at −30 mV relative to the ground. After addition of the IpTxa to the cis chamber, the single channel data were collected at −30 mV for 2–5 min. […] Recordings were filtered with an 8-pole low-pass Bessel filter at 1 kHz and digitalized through a Digidata 1200 series interface (Axon Instruments). Data acquisition and analysis were done with the Axon Instruments software, pClamp v7.0.
(§2) Data were analyzed using the Hill equation described previously:
(§3) (1) Psubstate=(Psubstate, max )/[1+(EC50/[IpTxa])^nH] orPo=(Po, max )/[1+(EC50/[IpTxa])^nH], where (Po, max ) is the Po observed at saturating concentrations of IpTxa, EC50 is the IpTxa concentration for which 50% of Po, max is obtained and nH is the Hill coefficient. Also, Psubstate, max is the Psubstate observed at saturating concentrations of IpTxa, EC50 is the IpTxa concentration for which 50% of Psubstate, max is obtained, and nH is the Hill coefficient. The probability of full open state of the channel (Po) was defined as the ratio of the time spent in the open state to the total time exclusive of time spent in the substate. The probability to obtain substate (Psubstate) was calculated as the time spent in the substate divided by a given total recording time. The durations of the substate were obtained by manual positioning of the cursors and constructing all point histograms. Mean duration of substate was measured by total substate time divided by total substate frequencies.
(§4) Results are given as means ± SE. Significant differences were analyzed using Student's t-test. Differences were considered to be significant when P < 0.05. The fitting of the data to the graphs were carried out using the software, Origin v7.
To examine how IpTxa modifies RyR1 activity, RyR1 in HSR incorporated in planar lipid bilayers was tested in the presence or absence of synthetic wild-type IpTxa. The chamber solutions for both cis (cytosolic) and trans (luminal) sides included 300 mM cesium methanesulfonate and 10 mM Tris-Hepes (pH 7.2). 10 μM free Ca^2+ was added to the cis side to activate the incorporated RyR1. After an addition of IpTxa to the cis chamber, the single channel gating properties were recorded at a holding potential of −30 mV for over 2 min at each toxin concentration. […] To examine the effects of IpTxa on full open state, we calculated the probability to obtain the full open state (Po) as the time spent in the open state divided by the total time exclusive of the time spent in the substate. The time for recorded Po was in the range of 30 s–2 min. […] The steady-state Po was 0.18 ± 0.02 at 10 μM Ca^2+. […]

In another assay the target is T2, purified rabbit RyR1 (Oryctolagus cuniculus, UniProt P11716).
T2 construct: we added IpTxa to purified RyR1 incorporated into planar lipid bilayers; from tissue; host or cells: rabbit skeletal muscle (inferred; purified from HSR)
Description: Planar lipid bilayer single-channel recording, purified RyR1. Type of assay: biochemical. To be noted: for EC50 for Psubstate compared with wild type (in words): purified RyR1, 6-100 nM; for EC50: purified RyR1, toxin cis, 6-100 nM, -30 mV, 10 μM Ca^2+, Hill fit, means ± SE of 4–10 experiments, read-out: EC50 for Psubstate. The protocol:
as §1, §2, §3, §4
To determine whether the activation of native RyR1 in SR by IpTxa was due to a direct activation of RyR1 or due to an indirect activation through other proteins associated to RyR1, we added IpTxa to purified RyR1 incorporated into planar lipid bilayers (Figure 3(a)). […] Purity of RyR1 at the final purification step was verified by Coomassie blue staining (Supplementary Figure 2).
Figure 3 Effects of IpTxa on purified rabbit RyR1 incorporated in planar lipid bilayers. (a) Single channel activity of purified RyR1 incorporated in planar lipid bilayers at 10 μM Ca^2+ with or without IpTxa (6–100 nM) was recorded. Single channel currents are shown as downward deflections from the closed level (indicated by c). The holding potential was −30 mV. (b) The plot of Po of purified RyR1 versus various concentrations of IpTxa is shown. (c) The plot of Psubstate of purified RyR1 versus various concentrations of IpTxa is shown. The results are shown as the means ± SE for 7 experiments. […]

Assay [2] concerns the target rabbit skeletal ryanodine receptor (RyR1) (rabbit) (UniProt P11716).
The subject of assay [3] is RyR1. The following applies: ref [16], [18]; cited from earlier work. The text has this: Imperatoxin A (IpTxa) from the African scorpion Pandinus imperator is a high-affinity modulator of skeletal RyR (RyR1). […] The inconsistency between occurrence of substate and ryanodine binding to RyR1 affected by K8A or T ...
In assay [4] the test system is RyR1. To be noted: cited from earlier work. The text has this: Imperatoxin A (IpTxa) from the African scorpion Pandinus imperator is a high-affinity modulator of skeletal RyR (RyR1). […] Stretches of these positively charged residues tend to adopt different secondary structures such as α-helical structure for Peptide A and β-sheet structure for IpTxa and MCa. However, their orientation on the surface of the peptides could be similar. […] Two toxins induced different degree of substate of RyR1 at +40 mV holding potential (28% and 48% of full conductance state for IpTxa and MCa, resp.). […] Thus, the di ...

Setting [5] is: native RyR1 in SR, toxin cis, 6-100 nM, [Ca^2+]free 10 μM, pH 7.2, Hill fit, means ± SE of 3–9 experiments, read-out: EC50 for Psubstate.

T1 sequence (P11716 whole entry): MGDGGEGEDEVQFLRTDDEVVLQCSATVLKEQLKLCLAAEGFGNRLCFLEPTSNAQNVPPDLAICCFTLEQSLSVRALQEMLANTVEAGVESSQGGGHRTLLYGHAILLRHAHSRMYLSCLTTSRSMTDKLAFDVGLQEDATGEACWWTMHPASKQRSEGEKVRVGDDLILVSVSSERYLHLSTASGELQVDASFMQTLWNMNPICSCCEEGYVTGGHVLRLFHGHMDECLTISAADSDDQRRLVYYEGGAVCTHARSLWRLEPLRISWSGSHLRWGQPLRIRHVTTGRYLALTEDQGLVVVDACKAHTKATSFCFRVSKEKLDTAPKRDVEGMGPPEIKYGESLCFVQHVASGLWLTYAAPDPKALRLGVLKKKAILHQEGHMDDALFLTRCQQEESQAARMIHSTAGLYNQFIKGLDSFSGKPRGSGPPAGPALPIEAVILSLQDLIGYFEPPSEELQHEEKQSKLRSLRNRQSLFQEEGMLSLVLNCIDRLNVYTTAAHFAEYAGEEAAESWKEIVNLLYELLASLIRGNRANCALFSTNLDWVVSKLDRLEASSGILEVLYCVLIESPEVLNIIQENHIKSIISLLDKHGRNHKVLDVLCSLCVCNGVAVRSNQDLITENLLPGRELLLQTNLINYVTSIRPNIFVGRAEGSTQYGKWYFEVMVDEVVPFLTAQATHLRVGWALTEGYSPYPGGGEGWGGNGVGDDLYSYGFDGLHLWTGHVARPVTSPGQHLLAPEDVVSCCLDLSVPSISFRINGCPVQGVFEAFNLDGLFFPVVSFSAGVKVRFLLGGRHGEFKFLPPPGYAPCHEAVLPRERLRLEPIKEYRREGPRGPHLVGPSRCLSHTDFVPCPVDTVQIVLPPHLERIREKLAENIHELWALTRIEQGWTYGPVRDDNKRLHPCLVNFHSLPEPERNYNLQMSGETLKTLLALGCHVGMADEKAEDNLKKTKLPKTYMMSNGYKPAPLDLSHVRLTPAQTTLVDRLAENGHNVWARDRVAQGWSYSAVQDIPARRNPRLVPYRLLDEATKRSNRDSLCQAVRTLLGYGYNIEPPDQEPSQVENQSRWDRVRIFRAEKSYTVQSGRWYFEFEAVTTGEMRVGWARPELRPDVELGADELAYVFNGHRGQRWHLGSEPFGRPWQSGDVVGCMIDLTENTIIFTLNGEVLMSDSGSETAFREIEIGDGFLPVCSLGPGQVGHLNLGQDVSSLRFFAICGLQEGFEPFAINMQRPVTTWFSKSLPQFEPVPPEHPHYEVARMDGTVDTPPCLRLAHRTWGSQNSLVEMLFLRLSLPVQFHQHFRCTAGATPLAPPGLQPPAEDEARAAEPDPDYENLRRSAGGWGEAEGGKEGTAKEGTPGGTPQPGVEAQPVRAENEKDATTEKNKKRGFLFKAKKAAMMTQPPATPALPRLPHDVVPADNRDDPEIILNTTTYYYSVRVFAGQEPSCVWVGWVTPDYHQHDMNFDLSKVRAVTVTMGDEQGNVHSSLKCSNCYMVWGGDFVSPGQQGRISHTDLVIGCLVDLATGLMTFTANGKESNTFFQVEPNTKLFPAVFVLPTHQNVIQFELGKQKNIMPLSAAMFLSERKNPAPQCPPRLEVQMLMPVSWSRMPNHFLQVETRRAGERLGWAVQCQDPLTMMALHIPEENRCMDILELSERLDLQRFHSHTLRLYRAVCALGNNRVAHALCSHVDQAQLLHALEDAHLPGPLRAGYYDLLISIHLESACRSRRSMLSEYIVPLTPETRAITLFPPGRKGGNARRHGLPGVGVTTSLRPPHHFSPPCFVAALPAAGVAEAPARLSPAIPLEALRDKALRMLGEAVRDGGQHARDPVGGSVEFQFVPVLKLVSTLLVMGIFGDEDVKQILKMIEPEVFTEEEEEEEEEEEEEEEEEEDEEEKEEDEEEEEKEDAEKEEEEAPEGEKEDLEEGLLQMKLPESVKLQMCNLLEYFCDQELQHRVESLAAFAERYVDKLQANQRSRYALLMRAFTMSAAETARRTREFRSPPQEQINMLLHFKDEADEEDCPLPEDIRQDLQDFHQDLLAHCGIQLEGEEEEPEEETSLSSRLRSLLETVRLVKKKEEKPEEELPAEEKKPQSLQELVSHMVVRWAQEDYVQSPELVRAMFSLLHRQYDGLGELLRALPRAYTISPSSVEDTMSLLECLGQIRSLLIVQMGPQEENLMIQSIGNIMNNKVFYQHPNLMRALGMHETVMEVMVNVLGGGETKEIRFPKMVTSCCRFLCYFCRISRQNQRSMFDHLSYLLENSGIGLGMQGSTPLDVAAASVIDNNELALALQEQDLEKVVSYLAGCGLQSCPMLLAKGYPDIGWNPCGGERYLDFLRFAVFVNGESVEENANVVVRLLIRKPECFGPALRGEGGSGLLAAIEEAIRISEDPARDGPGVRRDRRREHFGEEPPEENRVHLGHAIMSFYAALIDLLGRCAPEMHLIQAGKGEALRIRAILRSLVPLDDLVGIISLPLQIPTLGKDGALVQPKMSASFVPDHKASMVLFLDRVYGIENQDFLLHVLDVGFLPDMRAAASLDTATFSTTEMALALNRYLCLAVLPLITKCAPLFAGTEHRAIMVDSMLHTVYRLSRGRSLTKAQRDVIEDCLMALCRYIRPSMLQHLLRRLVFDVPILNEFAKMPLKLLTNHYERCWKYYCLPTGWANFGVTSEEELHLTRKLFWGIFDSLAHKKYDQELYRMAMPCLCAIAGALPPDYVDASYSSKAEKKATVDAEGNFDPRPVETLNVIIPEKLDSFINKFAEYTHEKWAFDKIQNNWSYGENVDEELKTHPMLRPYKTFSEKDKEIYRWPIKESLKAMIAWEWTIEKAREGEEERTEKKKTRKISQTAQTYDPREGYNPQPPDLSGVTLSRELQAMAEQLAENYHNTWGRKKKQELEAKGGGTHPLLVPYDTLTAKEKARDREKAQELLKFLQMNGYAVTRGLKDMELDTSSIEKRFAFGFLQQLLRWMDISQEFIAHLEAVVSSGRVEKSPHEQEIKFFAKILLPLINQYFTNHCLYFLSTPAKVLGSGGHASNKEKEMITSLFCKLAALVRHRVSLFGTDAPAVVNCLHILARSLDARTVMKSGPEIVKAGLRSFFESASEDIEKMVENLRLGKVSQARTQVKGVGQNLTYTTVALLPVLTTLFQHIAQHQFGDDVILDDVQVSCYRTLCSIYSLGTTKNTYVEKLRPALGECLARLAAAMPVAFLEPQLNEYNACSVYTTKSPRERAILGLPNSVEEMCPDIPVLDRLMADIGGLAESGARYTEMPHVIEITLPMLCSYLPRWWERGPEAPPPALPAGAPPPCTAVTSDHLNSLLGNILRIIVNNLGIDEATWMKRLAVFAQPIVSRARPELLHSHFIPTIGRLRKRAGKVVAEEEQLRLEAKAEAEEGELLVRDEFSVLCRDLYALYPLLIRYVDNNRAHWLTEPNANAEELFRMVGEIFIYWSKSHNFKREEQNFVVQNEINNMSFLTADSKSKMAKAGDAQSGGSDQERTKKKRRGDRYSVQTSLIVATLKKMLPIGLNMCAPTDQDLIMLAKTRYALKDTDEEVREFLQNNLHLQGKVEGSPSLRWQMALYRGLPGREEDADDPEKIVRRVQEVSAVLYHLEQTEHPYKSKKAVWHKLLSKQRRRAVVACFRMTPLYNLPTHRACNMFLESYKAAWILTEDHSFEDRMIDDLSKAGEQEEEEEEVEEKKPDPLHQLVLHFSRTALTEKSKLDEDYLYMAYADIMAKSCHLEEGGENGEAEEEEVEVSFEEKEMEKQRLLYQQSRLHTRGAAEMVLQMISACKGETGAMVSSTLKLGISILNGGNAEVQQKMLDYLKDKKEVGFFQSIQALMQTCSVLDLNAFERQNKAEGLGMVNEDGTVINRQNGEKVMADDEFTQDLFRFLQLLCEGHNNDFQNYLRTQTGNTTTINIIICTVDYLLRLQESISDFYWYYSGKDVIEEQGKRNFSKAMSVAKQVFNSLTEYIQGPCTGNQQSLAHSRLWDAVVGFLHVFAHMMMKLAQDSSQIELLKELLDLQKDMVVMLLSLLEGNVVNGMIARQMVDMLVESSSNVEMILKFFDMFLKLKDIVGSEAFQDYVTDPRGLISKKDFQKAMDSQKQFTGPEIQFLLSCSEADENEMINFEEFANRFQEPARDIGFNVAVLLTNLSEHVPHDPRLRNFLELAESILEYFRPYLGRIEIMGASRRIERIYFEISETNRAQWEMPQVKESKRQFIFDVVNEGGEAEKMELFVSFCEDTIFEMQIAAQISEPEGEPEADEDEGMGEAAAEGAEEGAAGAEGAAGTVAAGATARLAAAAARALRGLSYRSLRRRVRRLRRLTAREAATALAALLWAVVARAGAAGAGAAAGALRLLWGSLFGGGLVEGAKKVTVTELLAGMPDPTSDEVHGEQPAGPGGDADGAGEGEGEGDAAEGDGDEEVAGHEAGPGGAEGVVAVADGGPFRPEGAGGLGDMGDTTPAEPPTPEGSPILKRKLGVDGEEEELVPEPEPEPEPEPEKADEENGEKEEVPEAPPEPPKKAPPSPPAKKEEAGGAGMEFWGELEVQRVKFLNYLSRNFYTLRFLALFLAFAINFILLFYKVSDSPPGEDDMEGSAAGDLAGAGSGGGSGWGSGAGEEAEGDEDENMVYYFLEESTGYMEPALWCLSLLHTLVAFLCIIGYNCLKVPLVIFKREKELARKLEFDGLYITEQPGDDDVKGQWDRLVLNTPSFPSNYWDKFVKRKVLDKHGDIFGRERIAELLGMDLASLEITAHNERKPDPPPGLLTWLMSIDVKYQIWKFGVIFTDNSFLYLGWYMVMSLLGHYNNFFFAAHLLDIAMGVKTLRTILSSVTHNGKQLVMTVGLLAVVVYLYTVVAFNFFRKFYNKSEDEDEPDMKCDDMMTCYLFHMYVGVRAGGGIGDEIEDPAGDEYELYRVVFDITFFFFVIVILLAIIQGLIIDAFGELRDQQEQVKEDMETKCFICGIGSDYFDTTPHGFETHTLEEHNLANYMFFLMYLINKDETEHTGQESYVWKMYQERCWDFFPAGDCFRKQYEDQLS
T2 sequence (P11716 whole entry): as above

A word on the EC50: it is the midpoint of the concentration-response curve. Regarding `CC(C)C[C@@H]1NC(=O)[C@H](Cc2c[nH]cn2)NC(=O)[C@@H]2CCCN2C(=O)[C@H](CC(C)C)NC(=O)[C@@H](NC(=O)[C@H](CC(=O)O)NC(=O)CN)CSSC[C@@H]2NC(=O)[C@@H]3CSSC[C@@H](C(=O)N[C@@H](CCCNC(=N)N)C(=O)O)NC(=O)[C@H](CCCNC(=N)N)NC(=O)[C@H](C)NC(=O)[C@H](CCC(=O)O)NC(=O)[C@H](C)NC(=O)[C@H](CC(N)=O)NC(=O)[C@H]([C@@H](C)O)NC(=O)CNC(=O)[C@H](CCCNC(=N)N)NC(=O)[C@H](CCCNC(=N)N)NC(=O)[C@H](CCCCN)NC(=O)[C@H](CSSC[C@H](NC(=O)[C@H](CCCNC(=N)N)NC(=O)[C@H](CCCCN)NC1=O)C(=O)N[C@@H](CCCCN)C(=O)N[C@@H](C)C(=O)N[C@@H](CC(=O)O)C(=O)N[C@@H](CC(N)=O)C(=O)N[C@@H](CC(=O)O)C(=O)N3)NC(=O)[C@H](CCCCN)NC(=O)[C@H](CCCCN)NC(=O)CNC2=O` [K30A] (H-GDCLPHLKRCKADNDCCGKKCKRRGTNAEARCR-OH; disulfide 3-17, 10-21, 16-32), in assay [1] (setting [5]), the EC50 turned out to be 0.0167 ± 0.00286 µM. Also, at purified rabbit RyR1, the “EC50 for Psubstate compared with wild type (in words)” value is on record as “without a significant change of EC50” and the EC50 came to 0.0157 ± 0.00599 µM.

As to `CC(C)C[C@@H]1NC(=O)[C@H](Cc2c[nH]cn2)NC(=O)[C@@H]2CCCN2C(=O)[C@H](CC(C)C)NC(=O)[C@@H](NC(=O)[C@H](CC(=O)O)NC(=O)CN)CSSC[C@@H]2NC(=O)[C@@H]3CSSC[C@@H](C(=O)N[C@@H](CCCNC(=N)N)C(=O)O)NC(=O)[C@H](C)NC(=O)[C@H](CCCCN)NC(=O)[C@H](CCC(=O)O)NC(=O)[C@H](C)NC(=O)[C@H](CC(N)=O)NC(=O)[C@H]([C@@H](C)O)NC(=O)CNC(=O)[C@H](CCCNC(=N)N)NC(=O)[C@H](CCCNC(=N)N)NC(=O)[C@H](CCCCN)NC(=O)[C@H](CSSC[C@H](NC(=O)[C@H](CCCNC(=N)N)NC(=O)[C@H](CCCCN)NC1=O)C(=O)N[C@@H](CCCCN)C(=O)N[C@@H](C)C(=O)N[C@@H](CC(=O)O)C(=O)N[C@@H](CC(N)=O)C(=O)N[C@@H](CC(=O)O)C(=O)N3)NC(=O)[C@H](CCCCN)NC(=O)[C@H](CCCCN)NC(=O)CNC2=O` [R31A] (H-GDCLPHLKRCKADNDCCGKKCKRRGTNAEKACR-OH; disulfide 3-17, 10-21, 16-32), in assay [1] (setting [5]), the EC50 was 0.0192 ± 0.00465 µM. Moreover, at purified rabbit RyR1, the “EC50 for Psubstate compared with wild type (in words)” value was “without a significant change of EC50” and the EC50 turned out to be 0.0182 ± 0.00165 µM.

With `CC(C)C[C@@H]1NC(=O)[C@H](Cc2c[nH]cn2)NC(=O)[C@@H]2CCCN2C(=O)[C@H](CC(C)C)NC(=O)[C@@H](NC(=O)[C@H](CC(=O)O)NC(=O)CN)CSSC[C@@H]2NC(=O)[C@@H]3CSSC[C@@H](C(=O)N[C@@H](C)C(=O)O)NC(=O)[C@H](CCCNC(=N)N)NC(=O)[C@H](CCCCN)NC(=O)[C@H](CCC(=O)O)NC(=O)[C@H](C)NC(=O)[C@H](CC(N)=O)NC(=O)[C@H]([C@@H](C)O)NC(=O)CNC(=O)[C@H](CCCNC(=N)N)NC(=O)[C@H](CCCNC(=N)N)NC(=O)[C@H](CCCCN)NC(=O)[C@H](CSSC[C@H](NC(=O)[C@H](CCCNC(=N)N)NC(=O)[C@H](CCCCN)NC1=O)C(=O)N[C@@H](CCCCN)C(=O)N[C@@H](C)C(=O)N[C@@H](CC(=O)O)C(=O)N[C@@H](CC(N)=O)C(=O)N[C@@H](CC(=O)O)C(=O)N3)NC(=O)[C@H](CCCCN)NC(=O)[C@H](CCCCN)NC(=O)CNC2=O` [R33A] (H-GDCLPHLKRCKADNDCCGKKCKRRGTNAEKRCA-OH; disulfide 3-17, 10-21, 16-32), in assay [1] (setting [5]), the EC50 was 0.016 ± 0.00565 µM. Further, at purified rabbit RyR1, the “EC50 for Psubstate compared with wild type (in words)” value is “without a significant change of EC50” and the EC50 came out at 0.0193 ± 0.00105 µM.

As to `CC(C)C[C@@H]1NC(=O)[C@H](Cc2c[nH]cn2)NC(=O)[C@@H]2CCCN2C(=O)[C@H](CC(C)C)NC(=O)[C@@H](NC(=O)[C@H](CC(=O)O)NC(=O)CN)CSSC[C@@H]2NC(=O)[C@@H]3CSSC[C@@H](C(=O)N[C@@H](CCCNC(=N)N)C(=O)O)NC(=O)[C@H](CCCNC(=N)N)NC(=O)[C@H](CCCCN)NC(=O)[C@H](CCC(=O)O)NC(=O)[C@H](C)NC(=O)[C@H](CC(N)=O)NC(=O)[C@H]([C@@H](C)O)NC(=O)CNC(=O)[C@H](CCCNC(=N)N)NC(=O)[C@H](CCCNC(=N)N)NC(=O)[C@H](CCCCN)NC(=O)[C@H](CSSC[C@H](NC(=O)[C@H](CCCNC(=N)N)NC(=O)[C@H](CCCCN)NC1=O)C(=O)N[C@@H](CCCCN)C(=O)N[C@@H](C)C(=O)N[C@@H](CC(=O)O)C(=O)N[C@@H](CC(N)=O)C(=O)N[C@@H](CC(=O)O)C(=O)N3)NC(=O)[C@H](CCCCN)NC(=O)[C@H](CCCCN)NC(=O)CNC2=O` [Wild type, Imperatoxin A] (H-GDCLPHLKRCKADNDCCGKKCKRRGTNAEKRCR-OH; disulfide 3-17, 10-21, 16-32), the EC50 in assay [1] (native RyR1, toxin cis, 10 μM Ca^2+, Hill fit, means ± SE of ten experiments, read-out: EC50 for Po) is 0.0174 ± 0.00467 µM; in assay [1] (setting [5]), 0.0233 ± 0.00237 µM; at purified rabbit RyR1, 0.0171 ± 0.00231 µM.

As to “Imperatoxin A (IpTxa), synthetic wild type (from UniProt P59868 1-33) (peptide)”, the mean duration of substate of native RyR1 in HSR at 30 nM toxin in assay [2] turned out to be 4.56 s.

The molecule “IpTxa D2A (from UniProt P59868 1-33) (peptide)” returned a mean duration of substate of native RyR1 in HSR at 30 nM toxin in assay [2] of 2.96 s.

“IpTxa R9A (from UniProt P59868 1-33) (peptide)” gave a mean duration of substate of native RyR1 in HSR at 30 nM toxin in assay [2] of 5.86 s.

Take maurocalcine [MCa]: in the assay with RyR1 [3], the “[^3H]ryanodine binding (in words)” value was “strongly enhances [^3H]ryanodine binding to RyR1”. For the same molecule, in the assay with RyR1 [4] (+40 mV holding potential, ref [10], [13]), the “substate current amplitude, % of full conductance state” value is on record as 48%. Also, the “substate current amplitude, % of full conductance” value in the assay with RyR1 [4] (long-lasting substate of RyR1, ref [16], [18]) was 48%. Also, the “modification of channel gating by MCa and peptide A together (in words)” value with RyR1 [4] (ref [16]) is on record as “in an additive, but not competitive, manner”.
